Laboratory results as given in US20240034731A1, “AZA-QUINAZOLINE COMPOUNDS AND METHODS OF USE” (Iambic Therapeutics, Inc., priority 2022, published 2024).

Assays:
CDK4/Cyclin D1 = CDK4/Cyclin D1 (Homo sapiens (Human), UniProt P11802); assay: CDK4/Cyclin D1 CHEF Assay (AQT0258 peptide); assay type: biochemical; conditions: 200 uM ATP, read-out: CDK4/ CyclinD1 AQT IC50
Outline: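 Sox-labelled peptide AQT0258 phosphorylation read as chelation-enhanced fluorescence (ex 360/em 485 nm) with Mg(II). Enzyme preincubated with inhibitor 30 min at 22°C, substrate added, 3 h at 22°C; IC50 from four-parameter fit of fractional velocity versus inhibitor concentration.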

OVCAR-3 cells = assay: Cell Growth Inhibition, OVCAR-3 (CellTiterGlo, 6 days); assay type: cell-based; conditions: Homo sapiens, 144 h, OVCAR-3, 6-day treatment
Outline: (§1)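 MCF-7 (ER+ breast adenocarcinoma) or CCNE1-amplified OVCAR-3 cells, 500/well in RPMI with 10% FBS, treated with half-log dilutions typically 10-10,000 nM for 6 days at 37 °C. CellTiterGlo 2.0 luminescence gave % growth inhibition versus control; IC50 by four-parameter variable-slope fit.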

CDK6/Cyclin D3 = CDK6/Cyclin D3 (Homo sapiens (Human), UniProt Q00534); assay: CDK6/Cyclin D3 ADP-Glo Kinase Assay; assay type: biochemical; conditions: 100 uM ATP, read-out: CDK6/ CyclinD3 IC50
Chain of CDK6/Cyclin D3 (Q00534 whole entry): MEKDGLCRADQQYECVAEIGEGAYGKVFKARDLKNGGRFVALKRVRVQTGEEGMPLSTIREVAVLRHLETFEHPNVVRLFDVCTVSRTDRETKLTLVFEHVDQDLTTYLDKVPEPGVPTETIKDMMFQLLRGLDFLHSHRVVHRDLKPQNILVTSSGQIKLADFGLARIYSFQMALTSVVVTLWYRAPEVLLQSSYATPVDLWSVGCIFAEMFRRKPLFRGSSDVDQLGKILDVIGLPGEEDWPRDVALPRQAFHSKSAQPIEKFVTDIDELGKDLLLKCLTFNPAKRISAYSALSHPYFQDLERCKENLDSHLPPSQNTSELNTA
Chain of CDK6/Cyclin D3 (P30281 whole entry partner): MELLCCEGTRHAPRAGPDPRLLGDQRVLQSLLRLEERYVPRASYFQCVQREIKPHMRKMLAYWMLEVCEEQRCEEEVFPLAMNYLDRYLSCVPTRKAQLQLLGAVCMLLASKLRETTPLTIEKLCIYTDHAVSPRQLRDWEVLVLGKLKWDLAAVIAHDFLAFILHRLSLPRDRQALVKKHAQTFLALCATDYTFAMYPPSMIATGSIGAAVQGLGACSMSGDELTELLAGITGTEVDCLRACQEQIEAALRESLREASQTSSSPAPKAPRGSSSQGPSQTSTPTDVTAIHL
Outline: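 Enzyme and inhibitor were pre-incubated for 30 min at room temperature before ATP/substrate was added. The kinase reaction ran 90 min at room temperature, and ADP formed was detected by ADP-Glo luminescence. IC50 was fitted with a 4-parameter equation to fractional velocity versus inhibitor concentration.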

CDK1/Cyclin B1 = CDK1/Cyclin B1 (Homo sapiens (Human), UniProt P06493); assay: CDK1/Cyclin B1 ADP-Glo Kinase Assay; assay type: biochemical; conditions: ADP-Glo, 80 uM ATP; read-out: CDK1 Cyclin B1 IC50
Chain of CDK1/Cyclin B1 (P06493 whole entry): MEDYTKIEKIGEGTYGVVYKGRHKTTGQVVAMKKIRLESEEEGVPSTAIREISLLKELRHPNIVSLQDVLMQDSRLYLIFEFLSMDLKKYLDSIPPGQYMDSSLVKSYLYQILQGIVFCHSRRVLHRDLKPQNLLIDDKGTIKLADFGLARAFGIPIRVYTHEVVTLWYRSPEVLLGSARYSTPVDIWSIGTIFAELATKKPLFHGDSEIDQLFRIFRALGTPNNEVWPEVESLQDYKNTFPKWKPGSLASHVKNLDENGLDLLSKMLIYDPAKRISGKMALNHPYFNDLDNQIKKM
Chain of CDK1/Cyclin B1 (P14635 whole entry partner): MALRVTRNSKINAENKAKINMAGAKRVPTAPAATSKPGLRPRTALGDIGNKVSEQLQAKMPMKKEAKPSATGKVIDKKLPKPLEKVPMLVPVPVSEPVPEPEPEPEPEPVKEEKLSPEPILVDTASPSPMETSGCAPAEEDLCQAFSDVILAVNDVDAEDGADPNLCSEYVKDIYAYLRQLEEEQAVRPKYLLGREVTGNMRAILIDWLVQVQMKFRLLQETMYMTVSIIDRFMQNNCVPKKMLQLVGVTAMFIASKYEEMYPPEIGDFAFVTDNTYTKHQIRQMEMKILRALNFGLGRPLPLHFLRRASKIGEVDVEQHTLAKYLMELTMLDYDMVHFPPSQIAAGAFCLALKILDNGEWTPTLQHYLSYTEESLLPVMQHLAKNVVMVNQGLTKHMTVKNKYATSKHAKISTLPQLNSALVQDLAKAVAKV
Outline: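 Enzyme and inhibitor pre-incubated 30 min at room temperature before ATP/substrate addition; reaction run 90 min at room temperature. ADP formed measured by ADP-Glo luminescence; IC50 from a 4-parameter fit of fractional velocity versus inhibitor concentration.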

CDK2/Cyclin E1 = CDK2/Cyclin E1 (Homo sapiens (Human), UniProt P24941); assay: CDK2/Cyclin E1 Full length ADP-Glo Kinase Assay; assay type: biochemical; conditions: 20 uM ATP, read-out: CDK2/ CyclinE1 IC50
Outline: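 Full-length human CDK2/cyclin E1 was preincubated 30 min at room temperature with inhibitor, then reacted 90 min with ATP-containing substrate solution. ADP formed was measured by ADP-Glo luminescence; IC50 from 4-parameter fit of fractional velocity versus inhibitor concentration.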

MCF-7 cells = assay: Cell Growth Inhibition, MCF-7 (CellTiterGlo, 6 days); assay type: cell-based; conditions: Homo sapiens, MCF7, 144 h, MCF-7, 6-day treatment
Outline: as §1

Chain of CDK4/Cyclin D1 (P11802 whole entry): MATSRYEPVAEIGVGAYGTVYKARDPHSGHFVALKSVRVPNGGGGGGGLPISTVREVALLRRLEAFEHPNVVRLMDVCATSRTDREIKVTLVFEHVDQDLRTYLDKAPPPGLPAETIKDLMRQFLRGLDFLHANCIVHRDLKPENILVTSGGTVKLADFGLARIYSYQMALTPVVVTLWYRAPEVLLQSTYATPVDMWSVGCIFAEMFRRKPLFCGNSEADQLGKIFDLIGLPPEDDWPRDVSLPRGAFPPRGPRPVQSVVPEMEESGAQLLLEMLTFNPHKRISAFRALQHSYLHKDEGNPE
Chain of CDK4/Cyclin D1 (P24385 whole entry partner): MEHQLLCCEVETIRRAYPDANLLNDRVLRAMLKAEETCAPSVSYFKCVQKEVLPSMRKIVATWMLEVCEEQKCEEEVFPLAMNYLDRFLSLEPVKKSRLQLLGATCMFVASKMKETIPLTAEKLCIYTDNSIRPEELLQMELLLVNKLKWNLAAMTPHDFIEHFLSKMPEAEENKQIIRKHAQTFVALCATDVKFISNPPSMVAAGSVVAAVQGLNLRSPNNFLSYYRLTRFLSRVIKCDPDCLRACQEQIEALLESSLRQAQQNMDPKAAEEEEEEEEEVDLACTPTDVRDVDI

Row | SMILES | IC50 (CDK4/Cyclin D1) [µM] | IC50 (OVCAR-3 cells) [µM] | IC50 (CDK6/Cyclin D3) [µM] | IC50 (CDK1/Cyclin B1) [µM] | IC50 (CDK2/Cyclin E1) [µM] | IC50 (MCF-7 cells) [µM]
1 | Cc1cc2cnc(NC3CCN(S(C)(=O)=O)CC3)nc2c(N2CCC3(C2)CC3(F)F)n1 (stereo not drawn) [Compound 41, 8-(1,1-difluoro-5-azaspiro[2.4]heptan-5-yl)-6-methyl-N-(1-(methylsulfonyl)piperidin-4-yl)pyrido[3,4-d]pyrimidin-2-amine] | < 0.2 | > 2 | < 0.2 | < 0.2 | < 0.2 | > 2
2 | Cc1cc2cnc(N[C@H]3CC[C@@H](CN(C)C)CC3)nc2c(N2CCC3(C2)CC3(F)F)n1 (stereo partly drawn) [Compound 45, 8-(1,1-difluoro-5-azaspiro[2.4]heptan-5-yl)-N-((1s,4s)-4-((dimethylamino)methyl)cyclohexyl)-6-methylpyrido[3,4-d]pyrimidin-2-amine] | < 0.2 | > 2 | 0.5 to 2 | 0.001 | > 2 | > 2
3 | Cc1cc2cnc(NC3CCN(S(=O)(=O)C4CC4)CC3)nc2c(N2CC3(C2)CN(C2CC2)C3)n1 [Compound 48, 8-(6-cyclopropyl-2,6-diazaspiro[3.3]heptan-2-yl)-N-(1-(cyclopropylsulfonyl)piperidin-4-yl)-6-methylpyrido[3,4-d]pyrimidin-2-amine] | < 0.2 | > 2 | 0.2 to 0.5 | 0.5 to 2 | < 0.2 | > 2
4 | FC(F)c1cc2cnc(Nc3ccc4c(c3)CN(C3CC3)C4)nc2c(N2CC3(CCNC3)C2)n1 [Compound 50, N-(2-cyclopropylisoindolin-5-yl)-6-(difluoromethyl)-8-(2,6-diazaspiro[3.4]octan-2-yl)pyrido[3,4-d]pyrimidin-2-amine] | < 0.2 | 0.5 to 2 | < 0.2 | 0.5 to 2 | < 0.2 | 0.5 to 2
5 | Cc1cc2cnc(NC3CCN(S(C)(=O)=O)CC3)nc2c(N2CCC3(CCC3(F)F)C2)n1 (stereo not drawn) [Compound 52, 8-(1,1-difluoro-6-azaspiro[3.4]octan-6-yl)-6-methyl-N-(1-(methylsulfonyl)piperidin-4-yl)pyrido[3,4-d]pyrimidin-2-amine] | < 0.2 | 0.5 to 2 | < 0.2 | < 0.2 | < 0.2 | > 2
6 | Cc1cc2cnc(NC3CCN(S(C)(=O)=O)CC3)nc2c(N2CCC3(C2)CC(F)(F)C3)n1 [Compound 53, 8-(2,2-difluoro-6-azaspiro[3.4]octan-6-yl)-6-methyl-N-(1-(methylsulfonyl)piperidin-4-yl)pyrido[3,4-d]pyrimidin-2-amine] | < 0.2 | > 2 | < 0.2 | > 2 | < 0.2 | > 2
7 | Cc1cc2cnc(NC3CCN(S(=O)(=O)C4(C)CC4)CC3)nc2c(N2CCC3(CN(C)C3)C2)n1 [Compound 59, 6-methyl-8-(2-methyl-2,6-diazaspiro[3.4]octan-6-yl)-N-(1-((1-methylcyclopropyl)sulfonyl)piperidin-4-yl)pyrido[3,4-d]pyrimidin-2-amine] | < 0.2 | 0.5 to 2 | < 0.2 | 0.5 to 2 | < 0.2 | 0.5 to 2
8 | Cc1cc2cnc(NC3CCN(S(=O)(=O)C4CC4)CC3)nc2c(N2CC3(CCNCC3(F)F)C2)n1 [Compound 61, N-(1-(cyclopropylsulfonyl)piperidin-4-yl)-8-(5,5-difluoro-2,7-diazaspiro[3.5]nonan-2-yl)-6-methylpyrido[3,4-d]pyrimidin-2-amine] | < 0.2 | 0.5 to 2 | < 0.2 | < 0.2 | < 0.2 | 0.5 to 2
9 | Cc1cc2cnc(NC3CCN(S(=O)(=O)C4(C)CC4)CC3)nc2c(C2CC(C)(O)C2)n1 (stereo not drawn) [Compound 63, 1-methyl-3-(6-methyl-2-((1-((1-methylcyclopropyl)sulfonyl)piperidin-4-yl)amino)pyrido[3,4-d]pyrimidin-8-yl)cyclobutan-1-ol] | 0.5 to 2 | > 2 | > 2 | > 2 | 0.2 to 0.5 | > 2
10 | COCCN1CC2(C1)CN(c1nc(C3CC3)cc3cnc(NC4CCN(S(=O)(=O)CC5CCC5)CC4)nc13)C2 [Compound 64, N-(1-((cyclobutylmethyl)sulfonyl)piperidin-4-yl)-6-cyclopropyl-8-(6-(2-methoxyethyl)-2,6-diazaspiro[3.3]heptan-2-yl)pyrido[3,4-d]pyrimidin-2-amine] | < 0.2 | > 2 | 0.2 to 0.5 | 0.5 to 2 | < 0.2 | > 2

Next, values leading:

Row | IC50 (CDK4/Cyclin D1) [µM] | IC50 (OVCAR-3 cells) [µM] | IC50 (CDK6/Cyclin D3) [µM] | IC50 (CDK1/Cyclin B1) [µM] | IC50 (CDK2/Cyclin E1) [µM] | IC50 (MCF-7 cells) [µM] | SMILES
11 | < 0.2 | 0.5 to 2 | 0.2 to 0.5 | > 2 | 0.5 to 2 | 0.5 to 2 | Cc1cc2cnc(NC3CC4CC3CN4C)nc2c(N2CCC3(C2)CC3(F)F)n1 (stereo not drawn) [Compound 43, 8-(1,1-difluoro-5-azaspiro[2.4]heptan-5-yl)-6-methyl-N-(2-methyl-2-azabicyclo[2.2.1]heptan-5-yl)pyrido[3,4-d]pyrimidin-2-amine]
12 | 0.2 to 0.5 | > 2 | 0.5 to 2 | > 2 | > 2 | > 2 | Cc1cc2cnc(Nc3ccc4c(c3)CN(C)C4)nc2c(N2CC3(C2)CN(C2CC2)C3)n1 [Compound 44, 8-(6-cyclopropyl-2,6-diazaspiro[3.3]heptan-2-yl)-6-methyl-N-(2-methylisoindolin-5-yl)pyrido[3,4-d]pyrimidin-2-amine]
13 | < 0.2 | 0.5 to 2 | < 0.2 | 0.5 to 2 | < 0.2 | 0.5 to 2 | Cc1cc2cnc(Nc3ccc4c(c3)CN(C3CC3)C4)nc2c(N2CC3(CCNC3)C2)n1 [Compound 47, N-(2-cyclopropylisoindolin-5-yl)-6-methyl-8-(2,6-diazaspiro[3.4]octan-2-yl)pyrido[3,4-d]pyrimidin-2-amine]
14 | < 0.2 | 0.5 to 2 | 0.2 to 0.5 | 0.5 to 2 | < 0.2 | 0.5 to 2 | Cc1cc2cnc(NC3CCN(S(=O)(=O)C4CC4)CC3)nc2c(N2CC3(CCN(C)C3)C2)n1 [Compound 49, N-(1-(cyclopropylsulfonyl)piperidin-4-yl)-6-methyl-8-(6-methyl-2,6-diazaspiro[3.4]octan-2-yl)pyrido[3,4-d]pyrimidin-2-amine]
15 | < 0.2 | 0.5 to 2 | < 0.2 | < 0.2 | < 0.2 | > 2 | Cc1cc2cnc(NC3CCN(S(C)(=O)=O)CC3)nc2c(N2CCC3(CC3)C2)n1 [Compound 54, 6-methyl-N-(1-(methylsulfonyl)piperidin-4-yl)-8-(5-azaspiro[2.4]heptan-5-yl)pyrido[3,4-d]pyrimidin-2-amine]
16 | < 0.2 | 0.5 to 2 | < 0.2 | < 0.2 | < 0.2 | 0.2 to 0.5 | O=S(=O)(CC1CCC1)N1CCC(Nc2ncc3cc(C(F)F)nc(N4CC5(CCNC5)C4)c3n2)CC1 [Compound 55, N-(1-((cyclobutylmethyl)sulfonyl)piperidin-4-yl)-6-(difluoromethyl)-8-(2,6-diazaspiro[3.4]octan-2-yl)pyrido[3,4-d]pyrimidin-2-amine]
17 | < 0.2 | 0.5 to 2 | < 0.2 | < 0.2 | < 0.2 | 0.5 to 2 | Cc1cc2cnc(NC3CCN(S(=O)(=O)C4CC4)CC3)nc2c(N2CC(O)(C3CC3)C2)n1 [Compound 56, 3-cyclopropyl-1-(2-((1-(cyclopropylsulfonyl)piperidin-4-yl)amino)-6-methylpyrido[3,4-d]pyrimidin-8-yl)azetidin-3-ol]
18 | < 0.2 | > 2 | < 0.2 | 0.2 to 0.5 | < 0.2 | > 2 | Cc1cc2cnc(NC3CCN(S(=O)(=O)C4CC4)CC3)nc2c(N2CC(OC3CC3)C2)n1 [Compound 57, 8-(3-cyclopropoxyazetidin-1-yl)-N-(1-(cyclopropylsulfonyl)piperidin-4-yl)-6-methylpyrido[3,4-d]pyrimidin-2-amine]
19 | < 0.2 | 0.5 to 2 | < 0.2 | < 0.2 | < 0.2 | 0.5 to 2 | Cc1cc2cnc(NC3CCN(S(=O)(=O)C4CC4)CC3)nc2c(N2CCC(OC(F)F)C2)n1 (stereo not drawn) [Compound 58, N-(1-(cyclopropylsulfonyl)piperidin-4-yl)-8-(3-(difluoromethoxy)pyrrolidin-1-yl)-6-methylpyrido[3,4-d]pyrimidin-2-amine]
